Measured values from US10975084B2, “KDM5 inhibitors” (Merck Sharp & Dohme Corp., priority 2016, dated 2021).

Target: KDM5B (Homo sapiens (Human), UniProt Q9UGL1)
Test: KDM5B TR-FRET Enzyme Activity Assay
Assay type: biochemical
Details: LANCE TR-FRET; 5 nM full-length recombinant KDM5B; ten point titration 100000 nM to 5.08 nM
Protocol: KDM5B TR-FRET Enzyme Activity Assay
KDM5B enzymatic activity was determined with the LANCE (Lanthanide Chelate Excite) TR-FRET (Time-resolved fluorescence resonance energy transfer) assay. […] To each well of a white Greiner 1536 Lumitrac 1536 well-plate, 50 nL of compound (100 fold dilution in final assay volume of 5 μL) was dispensed, followed by the addition of 4 μL of 1× assay buffer (50 mM Hepes 7.3, 0.5 mM TCEP, 0.005% Brij-35, 0.02% BSA, 50 μM Na-L-Ascorbate and 2 μM AmFe(II)Sulfate) containing 5 nM of Full-length KDM5B enzyme (recombinant protein from baculovirus-transfected Sf21 cells: full-length KDM5B; MW=176.825 kDa). Following a 30 minutes compound and enzyme incubation in a humidified chamber, each reaction was initiated by the addition of 1 μL 1× assay buffer containing […] biotinylated H3K4Me3 peptide, and 500 nM α-ketoglutarate. The final reaction in each well of 5 μL consists of 5 nM KDM5B, 500 nM biotinylated-peptide, and 500 nM α-ketoglutarate. De-methylation reactions were allowed to proceed for 60 minutes. Reactions were immediately quenched by the addition of 5 uL of 2× Lance Detection Buffer (PerkinElmer) with 0.5 mM EDTA and 2 nM of Eu-anti-H3K4Me1-2 antibody, and 30 nM of Streptavidin-conjugated Dylight 650 detection reagents. After 60 minutes incubation with detection reagents, reaction plates were read on a PerkinElmer EnVision plate reader using standard TR-FRET protocol. Briefly, excitation of donor molecules (Eu-chelate-anti-H3K4Me1-2-antibody) with a laser light source at 337 nm produces energy that can be transferred to Dylight-650 acceptor molecules if this donor:acceptor pair is within close proximity. Fluorescence intensity at both 665 nm (acceptor) and 615 nm (donor) are measured and a TR-FRET ratio calculated for each well (acceptor intensity/donor intensity). IC50 values were determined by 4 parameter robust fit of TR-FRET ratio values vs. (Log 10) compound concentrations.

Chain of KDM5B (Q9UGL1 whole entry): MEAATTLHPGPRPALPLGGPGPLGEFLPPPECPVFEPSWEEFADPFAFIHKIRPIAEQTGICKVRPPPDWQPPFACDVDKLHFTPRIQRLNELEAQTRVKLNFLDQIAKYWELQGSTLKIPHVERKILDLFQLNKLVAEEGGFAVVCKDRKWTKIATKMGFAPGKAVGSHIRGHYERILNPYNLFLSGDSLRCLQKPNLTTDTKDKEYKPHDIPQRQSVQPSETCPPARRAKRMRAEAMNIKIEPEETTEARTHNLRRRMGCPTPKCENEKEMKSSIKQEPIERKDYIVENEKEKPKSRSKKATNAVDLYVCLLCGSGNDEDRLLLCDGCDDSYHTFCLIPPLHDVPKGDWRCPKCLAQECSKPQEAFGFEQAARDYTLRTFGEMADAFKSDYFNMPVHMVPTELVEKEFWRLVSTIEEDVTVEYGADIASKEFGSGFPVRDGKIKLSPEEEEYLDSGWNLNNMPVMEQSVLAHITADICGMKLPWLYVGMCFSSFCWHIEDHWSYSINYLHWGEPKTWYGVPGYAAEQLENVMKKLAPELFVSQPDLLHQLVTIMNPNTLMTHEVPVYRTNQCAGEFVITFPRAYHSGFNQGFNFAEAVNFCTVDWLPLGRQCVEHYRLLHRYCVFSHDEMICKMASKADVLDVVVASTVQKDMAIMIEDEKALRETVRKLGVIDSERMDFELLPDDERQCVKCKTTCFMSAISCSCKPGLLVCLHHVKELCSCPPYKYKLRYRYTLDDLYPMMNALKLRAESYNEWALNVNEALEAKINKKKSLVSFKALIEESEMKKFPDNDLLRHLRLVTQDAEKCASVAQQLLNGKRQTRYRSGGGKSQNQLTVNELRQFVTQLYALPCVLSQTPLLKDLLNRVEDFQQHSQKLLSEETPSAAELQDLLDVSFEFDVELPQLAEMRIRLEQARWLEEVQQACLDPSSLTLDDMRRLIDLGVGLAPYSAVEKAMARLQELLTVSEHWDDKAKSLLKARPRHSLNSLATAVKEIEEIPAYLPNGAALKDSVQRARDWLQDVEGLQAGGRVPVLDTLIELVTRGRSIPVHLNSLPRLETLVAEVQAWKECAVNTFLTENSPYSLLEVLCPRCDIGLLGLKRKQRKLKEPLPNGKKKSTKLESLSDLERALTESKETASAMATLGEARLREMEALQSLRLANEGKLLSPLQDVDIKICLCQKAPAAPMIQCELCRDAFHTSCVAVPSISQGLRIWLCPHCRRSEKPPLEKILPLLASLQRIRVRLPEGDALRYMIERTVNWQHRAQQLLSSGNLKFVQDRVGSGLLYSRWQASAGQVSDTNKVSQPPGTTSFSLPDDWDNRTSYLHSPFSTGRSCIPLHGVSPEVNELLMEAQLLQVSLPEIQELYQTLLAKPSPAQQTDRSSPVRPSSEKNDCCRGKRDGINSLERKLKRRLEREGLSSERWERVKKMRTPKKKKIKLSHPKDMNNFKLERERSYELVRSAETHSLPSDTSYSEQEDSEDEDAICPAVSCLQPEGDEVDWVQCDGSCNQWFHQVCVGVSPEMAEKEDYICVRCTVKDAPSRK

| Compound | IC50 [nM] |
| --- | --- |
| Cc1[nH]ncc1-c1[nH]c2ncnn2c(=O)c1C(C)C [Example 11-28, 6-(1-methylethyl)-5-(5-methyl-1H-pyrazol-4-yl)[1,2,4]triazolo[1,5-a]pyrimidin-7(4H)-one] | 155 |
| CC(C)c1c(C2=CCCCC2)[nH]c2ncnn2c1=O [Example 11-29, 5-cyclohex-1-en-1-yl-6-(1-methylethyl)[1,2,4]triazolo[1,5-a]pyrimidin-7(4H)-one] | 399 |
| CC(C)c1c(C2=COCCC2)[nH]c2ncnn2c1=O [Example 11-30, 5-(3,4-dihydro-2H-pyran-5-yl)-6-(1-methylethyl)[1,2,4]triazolo[1,5-a]pyrimidin-7(4H)-one] | 254 |
| CC(C)c1c(C2=CCCOC2)[nH]c2ncnn2c1=O [Example 11-31, 5-(5,6-dihydro-2H-pyran-3-yl)-6-(1-methylethyl)[1,2,4]triazolo[1,5-a]pyrimidin-7(4H)-one] | 372 |
| CC(C)c1c(-c2ccccc2F)[nH]c2ncnn2c1=O [Example 11-32, 5-(2-fluorophenyl)-6-(1-methylethyl)[1,2,4]triazolo[1,5-a]pyrimidin-7(4H)-one] | 394 |
| CC(C)c1c(-c2cccc(F)c2)[nH]c2ncnn2c1=O [Example 11-33, 5-(3-fluorophenyl)-6-(1-methylethyl)[1,2,4]triazolo[1,5-a]pyrimidin-7(4H)-one] | 136 |
| Cc1noc(C)c1-c1[nH]c2ncnn2c(=O)c1C(C)C [Example 11-34, 5-(3,5-dimethylisoxazol-4-yl)-6-(1-methylethyl)[1,2,4]triazolo[1,5-a]pyrimidin-7(4H)-one] | 11100 |
| CC(C)c1c(C2=CCCN(C)C2)[nH]c2ncnn2c1=O [Example 11-35, 6-(1-methylethyl)-5-(1-methyl-1,2,5,6-tetrahydropyridin-3-yl)[1,2,4]triazolo[1,5-a]pyrimidin-7(4H)-one] | 506 |
| CC(C)c1c(C2=CCC(O)CC2)[nH]c2ncnn2c1=O (stereo not shown) [Example 11-36, 5-(4-hydroxycyclohex-1-en-1-yl)-6-(1-methylethyl)[1,2,4]triazolo[1,5-a]pyrimidin-7(4H)-one] | 137 |

These reach a lower IC50. Values come first.

| IC50 [nM] | Compound |
| --- | --- |
| 74.7 | CC(C)c1c(-c2cccc(N3CCCCC3)c2)[nH]c2ncnn2c1=O [Example 11-42, 6-(1-methylethyl)-5-(3-piperidin-1-ylphenyl)[1,2,4]triazolo[1,5-a]pyrimidin-7(4H)-one] |
| 23.8 | CC(C)c1c(-c2coc(-c3ccc(F)cc3)n2)[nH]c2ncnn2c1=O [Example 11-43, 5-[2-(4-fluorophenyl)-1,3-oxazol-4-yl]-6-(1-methylethyl)[1,2,4]triazolo[1,5-a]pyrimidin-7(4H)-one] |
| 21.6 | CC(C)c1c(-c2cccc(C#N)c2)[nH]c2ncnn2c1=O [Example 11-37, 3-[6-(1-methylethyl)-7-oxo-4,7-dihydro[1,2,4]triazolo[1,5-a]pyrimidin-5-yl]benzonitrile] |
| 21.6 | CC(C)c1c(-c2ccc(C#N)cc2)[nH]c2ncnn2c1=O [Example 11-38, 4-[6-(1-methylethyl)-7-oxo-4,7-dihydro[1,2,4]triazolo[1,5-a]pyrimidin-5-yl]benzonitrile] |
| 11.8 | CC(C)c1c(-c2ccc(N3CCCCC3)cc2)[nH]c2ncnn2c1=O [Example 11-41, 6-(1-methylethyl)-5-(4-piperidin-1-ylphenyl)[1,2,4]triazolo[1,5-a]pyrimidin-7(4H)-one] |
| 5.83 | CC(C)c1c(-c2cnn(Cc3ccccn3)c2)[nH]c2ncnn2c1=O [Example 11-39, 6-(1-methylethyl)-5-[1-(pyridin-2-ylmethyl)-1H-pyrazol-4-yl][1,2,4]triazolo[1,5-a]pyrimidin-7(4H)-one] |
| 5.77 | CC(C)c1c(-c2cnn(Cc3cccnc3)c2)[nH]c2ncnn2c1=O [Example 11-40, 6-(1-methylethyl)-5-[1-(pyridin-3-ylmethyl)-1H-pyrazol-4-yl][1,2,4]triazolo[1,5-a]pyrimidin-7(4H)-one] |
